According to paper PMC12029662, “Cytotoxicity Comparison of ^99mTc-Labeled Peptide Antagonist and Agonist Targeting the SSTR2 Receptor in AR42J Cells” (Molecules, 2025):
Like-named read-outs stand apart in the source and are kept apart here. Positions of bridges follow the written chain, without caps; N, C: chain ends. Non-standard residues stand in square brackets, D forms with d. dPhe(4-NHCONH2) = NC(=O)Nc1ccc(C[C@@H](N)C(=O)O)cc1; Phe(4-Cl) = N[C@@H](Cc1ccc(Cl)cc1)C(=O)O; N4 = N4 chelator for 99mTc

Tests used:
SSTR2 = target: T1, SSTR2 (Rattus norvegicus, UniProt P30680); test: Saturation binding affinity assay on AR-42-J cells; settings: for Specific binding on AR42J cells, antagonist compared with agonist: specific = total minus nonspecific binding, Figure 2
T1 construct: AR-42-J cells were seeded in 6-well plates; host or cells: AR-42-J (AR42J) rat pancreatic tumour cells, intact, no transfection described
Description: Figure 2 illustrates the relationship between specific binding and the concentration of the radioconjugates. In Supplementary Materials Figure S1, we included experimental data on total binding and non-specific binding in the presence of a 2000-fold excess of octreotide, which allowed us to determine specific binding.
Following incubation, the cells were washed with PBS, collected into tubes and then lysed twice using 800 μL of 1 M NaOH (for 12-well plate) and 1.5 mL of 1 M NaOH (for 6-well plates). The lysates were collected in separate tubes and radioactivity was measured using Wizard2 gamma counter, PerkinElmer, Waltham, MA, USA. The lysates were transferred to separate tubes and radioactivity was quantified using Wizard2 gamma counter.

[1] = reported in multiple studies; cited from earlier work
AR42J cells [2] = test: Cytotoxicity studies (MTS assay)
Excerpt: The properties of agonist octreotide conjugates labeled with the radionuclide ^111In have been studied in several works, primarily for imaging but also for Auger electron therapy. The ^111In not only emits gamma quanta but also produces 7.4 Auger electrons. […] In a few works, Maecke et al. also studied ^111In radioconjugates with SSTR receptor antagonists, but these studies were focused on tumor imaging and the therapeutic effect was not investigated. […] They are easily repairable and the cells could continue to divide.
Figure 4 Cytotoxicity of ^99mTc-labeled SSTR2 receptor agonist TEKTROTYD (left graph) and antagonist TECANT-1 (right graph) for AR42J cells. The data results are expressed in mean ± standard deviation. One-way ANOVA analysis was used for multiple group comparisons, followed by Tukey’s test.
A cytotoxicity assay was performed using the AR42J cell line. A total of 10^4 cells were seeded in 96-well plate and incubated overnight at 37 °C in a 5% CO2 atmosphere. The following day, the medium was removed and the cells were treated with radiocompounds at concentrations of 100, 50, 25, 12.5 MBq/mL The cells were then incubated for 24, 48, and 72 h. At each specified time point, 20 µL of MTS reagent was added to cells and incubated for 2 h. Absorbance at 490 nm was measured to estimate the percentage of cell metabolic activity. […] The average absorbance of these control wells was subtracted from the absorbance of wells containing treated cells.

AR42J cells [3] = test: Internalization assay (membrane-bound vs internalized fraction); format: cell-based, rat; settings: Figure 3
Description: Briefly, AR42J cells (7 × 10^5 cells/well) were seeded in 6-well plates and incubated for 2 days. Following this incubation, the cells were washed twice with cold PBS and then treated with 5 nM of tested compounds. To avoid internalization, the cells were incubated at 4 °C for 1 h. Non-specific binding was assessed by adding a 1000-fold molar excess of unlabeled octreotide acetate. After incubation, unbound fraction was collected in tubes, and the cells were washed twice with 1 mL of cold PBS. Fresh medium was then added, and the cells were incubated at 37 °C for up to 24 h. At each time interval, the second medium portion was collected, and cells were washed twice with 1 mL of PBS. Next, the membrane-bound fraction was collected using 0.05 M glycine–HCl buffer (pH 2.8). Finally, the internalized fraction was obtained by lysing the cells with 1.5 mL of 1 M NaOH.

[4] = AR42J cells, MTS, 12.5–100 MBq/mL, Figure 4

T1 sequence (P30680 whole entry): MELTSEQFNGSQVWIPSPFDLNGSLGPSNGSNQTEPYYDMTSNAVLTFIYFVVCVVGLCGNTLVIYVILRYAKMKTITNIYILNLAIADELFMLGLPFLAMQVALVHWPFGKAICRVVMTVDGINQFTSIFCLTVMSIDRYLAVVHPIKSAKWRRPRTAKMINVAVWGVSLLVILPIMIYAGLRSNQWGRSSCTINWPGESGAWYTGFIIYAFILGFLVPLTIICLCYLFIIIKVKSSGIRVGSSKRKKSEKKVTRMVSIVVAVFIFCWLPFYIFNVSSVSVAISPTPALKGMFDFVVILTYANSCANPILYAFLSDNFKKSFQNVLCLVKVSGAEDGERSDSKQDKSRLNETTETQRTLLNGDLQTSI

“^99mTc-N4-p-Cl-Phe-cyclo(D-Cys-Tyr-D-4-amino-Phe(carbamoyl)-Lys-Thr-Cys)D-Tyr- NH2 (disulfide) ({99mTc-N4}-[Phe(4-Cl)][dC]Y[dPhe(4-NHCONH2)]KTC[dY]-NH2; disulfide 2-7; also: 99mTc complex via N4 chelator) [^99mTc-TECANT-1]” showed a Kd (SSTR2; saturation curves, AR42J cells, 2 h incubation with 0.004–20 nM radiopeptide, non-specific binding with 2000-fold excess of octreotide, gamma counter) of 1.5 nM.

For “^99mTc-EDDA/HYNIC-3Tyr-octreotide (disulfide) [^99mTc-TEKTROTYD]”, the “Stability in biological fluids, including human serum” value [1] is listed as “high stability”, the Cytotoxicity in words (AR42J cells [2]; AR42J cells, MTS assay) is listed as “slight cytotoxicity” and the “Cell viability after 72 h compared with earlier time points” value (AR42J cells [2]; [4]) is listed as “significant increase in cell viability observed after 72 h”.

With “^99mTc-N4-p-Cl-Phe-cyclo(D-Cys-Tyr-D-4-amino-Phe(carbamoyl)-Lys-Thr-Cys)D-Tyr- NH2 (disulfide) [^99mTc-TECANT-1]” the “Specific binding on AR42J cells, antagonist compared with agonist” value (SSTR2) was “greater binding”, the “Cellular localization in words” value (AR42J cells [3]) was “most of the radioconjugate is accumulated in the cell membrane” and the Cytotoxicity in words (AR42J cells [2]) was “significantly enhanced cytotoxic effect”. The “Toxicity of antagonist relative to agonist” value (AR42J cells [2]; AR42J cells, MTS, 12.5–100 MBq/mL, 24, 48, 72 h, Figure 4) was “two to three times higher”.

With “N4-p-Cl-Phe-cyclo(D-Cys-Tyr-DAph(Cbm)-Lys-Thr-Cys)-D-Tyr-NH2 (disulfide) [TECANT-1]” the “Specific binding on AR42J cells, antagonist compared with agonist” value (SSTR2) was “significantly greater” and the “Cell viability after 72 h compared with earlier time points” value (AR42J cells [2]; [4]) was “no such effect was observed”.
